Test results taken from patent US20250319032A1, “PHARMACEUTICAL COMPOSITIONS OF RIBOCICLIB” (Novartis AG, priority 2024, published 2025).

Columns and labels:
[1] = Range-finding oral toxicity study of DMP433 (Labcorp Study Number 8526660); type: in vivo, mouse; conditions: both sexes, Muta™ Mouse, mouse, in vivo; oral, daily; read-out: maximum tolerated dose level (MTD)
Description: (§1) In a previously conducted range-finding study (Labcorp Study Number 8526660) DMP433 was dosed orally in groups of 6 males and 6 females at 500, 100 or 50 mg/kg/day daily for up to 14 days. […] Where clinical signs were seen, animals had recovered prior to dosing the following day. A single Day 1 (Subgroup 1) female satellite animal was removed from the study due to the severity of the clinical observations. […] Where clinical signs were seen, animals had recovered prior to dosing the following day. […] Therefore, dosing in males and females will be conducted.
(§2) Based on the toxicity and bioanalytical data generated under Labcorp Study Number 8526660, the maximum tolerated dose level (MTD) of 100 mg/kg/day* will be used as the high dose level. Two further doses of 50 and 25 mg/kg/day, will also be tested in males (OECD, 2022). As there is a crossover in exposure between males and females, vehicle controls and the MTD of 100 mg/kg/day only will be evaluated in females. • group 4 male animals given 80 mg/kg/day from Day 4 of dosing onwards due to mortality/morbidity.

Muta™ Mice = test: as above; type: in vivo, mouse
Description: as §1, §2

[2] = tested on: lacZ transgene within the bone marrow, liver, kidney, and duodenum from treated Muta™ Mice; test: Transgenic gene mutation assay in Muta™ Mice (lacZ); type: in vivo, Muta™ Mouse CD2-lacZ80/HazfBR; conditions: oral gavage, 28 consecutive days, sampling day 31
From the text: A study is on-going, with the objective of evaluating the potential of DMP433 to induce gene mutations in the lacZ transgene within the bone marrow, liver, kidney, and duodenum from treated Muta™ Mice. The bone marrow and liver will be examined as these tissues are expected to be highly exposed to DMP433 upon oral gavage dosing and/or representative of organs with fast and slow dividing cells respectively. The duodenum will be assessed as a site of contact tissue following oral gavage dosing. The kidney will also be examined as a standard target organ for tumours for nitrosamines.
The animals used will be transgenic mouse of the strain Muta™ Mouse CD2-lacZ80/HazfBR (supplied by Charles River, UK). The animals will have an age range of approximately 8 to 12 weeks on the first day of dosing, and a weight range of approximately 18 to 35 g. […]
as §2, with “Two further doses of 50 and 25 mg/kg/day, will also be tested in males (OECD, 2022).” left out, “mortality/morbidity. […]” for “mortality/morbidity.”

[3] = Bioanalysis and toxicokinetic evaluation of DMP433 in mouse plasma and tissues; type: in vivo; conditions: 100 mg/kg/day, Day 14
Description: as §1
The blood samples will be processed. Determination of DMP433 in mouse plasma containing K2EDTA as an anticoagulant will be conducted by Labcorp Bioanalytical in accordance with Labcorp Policies, and all procedures will be conducted following method DMP4MPP validated under Labcorp study number 8527178.
Toxicokinetic parameters will be estimated using Phoenix® WinNonlin® version 8.1 or higher (Certara USA, Inc., Princeton, New Jersey). A non-compartmental approach consistent with the oral route of administration will be used for parameter estimation. […]
For determination of mean DMP433 concentrations, concentration values that are below the limit of quantitation will be treated as zero. […]
Bioanalytical data will be used as received for the toxicokinetic analysis. Toxicokinetic parameters will be calculated. […]

[4] = Stability of DMP433 dose formulations in vehicle; type: physicochemical; conditions: 0.5 and 50 mg/mL; 2 to 8° C. and 15 to 25° C., protected from light
Description: The vehicle control is 2.2 eq HCl 1.ON (˜40%)+28% as powder sulfobutylether-β-cyclodextrin (pH 2.0+0.5), with storage conditions in dispensary of 2 to 8° C. protected from light.
The test item formulation will be prepared daily, unless stability data supports less frequent preparation. The stability data will be generated under Labcorp Study Number 8528626. DMP433 formulations in vehicle at concentrations of 0.5 and 50 mg/mL have been confirmed as stable for up to 8 days at 2 to 8° C. and 15 to 25° C., both protected from light. The storage conditions in central dispensary will be 15 to 25° C. protected from light.
The formulation will be analysed (HPLC/UV analysis, Lapcorp method 8528626-01F, version in force on 22nd February 2024) to confirm that it achieves concentration and homogeneity. Samples (as shown in the following tables, where n/a means not applicable) will be taken from the main experiment during week 1 and week 4 and analysed accordingly.

For `CN(C)C(=O)c1cc2cnc(Nc3ccc(N4CCN(N=O)CC4)cn3)nc2n1C1CCCC1` [DMP433, 7-cyclopentyl-N,N-dimethyl-2-((5-(4-nitrosopiperazin-1-yl)pyridin-2-yl)amino)-7H-pyrrolo[2,3-d]pyrimidine-6-carboxamide], the MTD [1] was 100 mg/kg/day, the “bodyweight, Range-Finder 3” value (Muta™ Mice; 50 mg/kg/day oral, 14 days) was “all animals except one (male M5209) had gained bodyweight” and the “clinical signs, Range-Finder 3” value (Muta™ Mice; 50 mg/kg/day oral, up to 14 days, Subgroup 2 animals) was “squinting, mild decreased activity and piloerection”. The “bodyweight, Range-Finder 2” value (Muta™ Mice; 100 mg/kg/day oral, 14 days) was “all animals gained bodyweight during the 14-day dosing period”, the “clinical signs, Range-Finder 2” value (Muta™ Mice; 100 mg/kg/day oral, up to 14 days, Subgroup 2 animals) was “squinting, partially closed eyes, fast respiration, mild hunched posture and piloerection” and the “outcome of Range-Finder 1” value (Muta™ Mice; 500 mg/kg/day oral, 6 males and 6 females) was “terminated on day 1 due to animal mortality/morbidity and convulsions”. The “result of the gene mutation assay (capable of inducing mutation)” value [2] was “positive”, the “sex difference in bioanalytical data” value [3] was “approximately 2 fold” and the “time for which DMP433 formulations in vehicle are stable” value [4] was “up to 8 days”.
